Measured values reported in patent US9193689B2, “3-aryl-5-substituted-isoquinolin-1-one compounds and their therapeutic use” (INSTITUTE OF CANCER RESEARCH: ROYAL CANCER HOSPITAL (THE), priority 2012, dated 2015).
pIC50: −log10 of the molar value. Where “and” joins values, the source holds several entries; their conditions need not be identical. Equal entries are not always repeated.

molecular target: TNKS1 (Homo sapiens, UniProt O95271); assay: TNKS1/PARP Biochemical Assay (TNKS1)

SMILES	pIC50
Cc1cccc2c(=O)[nH]c(-c3ccc(CN4CCNCC4C)cc3)cc12 (single isomer, unassigned) [IQ-051-2]	> 7.30
CN1CCN(c2ccc(-c3cc4c(Cl)cccc4c(=O)[nH]3)c[n+]2[O-])CC1 [IQ-002-2, 5-Chloro-3-[6-(4-methyl-piperazin-1-yl)-1-oxy-pyridin-3-yl]-2H-isoquinolin-1-one]	> 6.30
Cc1cccc2c(=O)[nH]c(-c3ccc(N4CCN(C5CC5)CC4)nc3)cc12 [IQ-004]	> 7.70
Cc1cccc2c(=O)[nH]c(-c3ccc(N4CCC(N(C)C)CC4)nc3)cc12 [IQ-006]	> 7.70
CN(C)C1CCN(c2ccc(-c3cc4c(Cl)cccc4c(=O)[nH]3)cn2)CC1 [IQ-007]	> 7.30
Cc1cccc2c(=O)[nH]c(-c3ccc(N4CCC(N(C)C)C4)nc3)cc12 (stereo not shown) [IQ-008]	> 7.70
CC(C)(C)OC(=O)N1CCN(c2ccc(-c3cc4c(Cl)cccc4c(=O)[nH]3)cc2)CC1 [IQ-010]	> 6.30
Cc1cccc2c(=O)[nH]c(-c3ccc(N4CCN(CCO)CC4)nc3)cc12 [IQ-011, 3-{6-[4-(2-Hydroxy-ethyl)-piperazin-1-yl]-pyridin-3-yl}-5-methyl-2H-isoquinolin-1-one]	> 7.70
O=c1[nH]c(-c2ccc(N3CCN(CCO)CC3)nc2)cc2c(Cl)cccc12 [IQ-012]	> 7.30
Cc1cccc2c(=O)[nH]c(-c3ccc(N4CCN(C(=O)OC(C)(C)C)CC4)cc3)cc12 [IQ-013]	> 7.30
O=c1[nH]c(-c2ccc(N3CCNCC3)cc2)cc2c(Cl)cccc12 [IQ-014]	> 7.70
CC(=O)N1CCN(c2ccc(-c3cc4c(Cl)cccc4c(=O)[nH]3)cc2)CC1 [IQ-015]	> 7.30
Cc1cccc2c(=O)[nH]c(-c3ccc(N4CCNCC4)cc3)cc12 [IQ-016]	> 6.30 and > 7.30 and > 7.70 and 7.92
Cc1cccc2c(=O)[nH]c(-c3ccc(N4CCN(CCN(C)C)CC4)nc3)cc12 [IQ-018]	> 7.70
Cc1cccc2c(=O)[nH]c(-c3cnc(N4CCN(C(=O)OC(C)(C)C)CC4)c(F)c3)cc12 [IQ-020]	> 6.30
Cc1cccc2c(=O)[nH]c(-c3cnc(N4CCNCC4)nc3)cc12 [IQ-026]	> 7.30

SMILES	pIC50
Cc1cccc2c(=O)[nH]c(-c3ccc(N4CCNCC4)nc3)cc12 [IQ-028-1]	> 7.70
CNCc1ccc(-c2cc3c(C)cccc3c(=O)[nH]2)cc1 [IQ-029]	> 7.70
Cc1cccc2c(=O)[nH]c(-c3ccc(CN4CCCC4)c(F)c3)cc12 [IQ-039]	> 6.30
Cc1cccc2c(=O)[nH]c(-c3ccc(CN4CCN(C(=O)OC(C)(C)C)CC4)cc3)cc12 [IQ-040]	> 6.30
Cc1cccc2c(=O)[nH]c(-c3ccc(CCN4CCCC4)cc3)cc12 [IQ-041]	> 6.30
Cc1cccc2c(=O)[nH]c(-c3ccc(CCN4CCOCC4)cc3)cc12 [IQ-042]	> 7.30
CC(C)(C)OC(=O)N1CCN(Cc2ccc(-c3cc4c(Cl)cccc4c(=O)[nH]3)cc2)CC1 [IQ-044]	> 6.30
CC(=O)N1CCN(Cc2ccc(-c3cc4c(Cl)cccc4c(=O)[nH]3)cc2)CC1 [IQ-045]	> 7.30
CC(C)(C)OC(=O)N1CCN(Cc2ccc(-c3cc4c(C5CC5)cccc4c(=O)[nH]3)cc2)CC1 [IQ-047]	> 6.30
O=c1[nH]c(-c2ccc(CN3CCNCC3)cc2)cc2c(C3CC3)cccc12 [IQ-049]	> 6.30
Cc1cccc2c(=O)[nH]c(-c3ccc(CN4CCN(C5CC5)CC4)cc3)cc12 [IQ-050]	> 7.30
Cc1cccc2c(=O)[nH]c(-c3ccc(CN4CCNCC4C)cc3)cc12 (stereo not shown) [IQ-051-1]	> 7.70
Cc1cccc2c(=O)[nH]c(-c3ccc(CN4CCN(C)C(C)C4)cc3)cc12 (stereo not shown) [IQ-052]	> 7.30
CC(=O)N1CCN(Cc2ccc(-c3cc4c(C)cccc4c(=O)[nH]3)cc2)CC1 [IQ-055, 3-[4-(4-Acetyl-piperazin-1-ylmethyl)-phenyl]-5-methyl-2H-isoquinolin-1-one]	> 7.70
CN1CCN(Cc2ccc(-c3cc4c(Cl)cccc4c(=O)[nH]3)cc2)C(=O)C1 [IQ-056]	> 7.30

Continued, values first:

pIC50	SMILES
> 7.30	Cc1cccc2c(=O)[nH]c(-c3ccc(C(=O)N(C)C4CCN(C)C4)cc3)cc12 (single isomer, unassigned) [IQ-205-1]
> 7.70	Cc1cccc2c(=O)[nH]c(-c3ccc(C(=O)N(C)C4CCN(C)C4)cc3)cc12 (single isomer, unassigned) [IQ-205-2]
> 7.30	Cc1cc(F)cc2c(=O)[nH]c(-c3ccc(C(=O)N(C)C4CCN(C)C4)cc3)cc12 (single isomer, unassigned) [IQ-207-1]
> 7.30	Cc1cc(F)cc2c(=O)[nH]c(-c3ccc(C(=O)N(C)C4CCN(C)C4)cc3)cc12 (single isomer, unassigned) [IQ-207-2]
> 7.30	Cc1cccc2c(=O)[nH]c(-c3ccc(CN4CCNCC4)c(F)c3)cc12 [IQ-059]
> 6.30	Cc1cccc2c(=O)[nH]c(-c3ccc(CN4CCCN(C(=O)OC(C)(C)C)CC4)cc3)cc12 [IQ-060]
> 7.70	Cc1cccc2c(=O)[nH]c(-c3ccc(CN4CCCNCC4)cc3)cc12 [IQ-062]
> 6.30	Cc1cccc2c(=O)[nH]c(-c3ccc(CN4CC(C)NC(C)C4)cc3)cc12 (stereo not shown) [IQ-063]
> 7.30	Cc1cccc2c(=O)[nH]c(-c3ccc(CN4CCCN(C)CC4)cc3)cc12 [IQ-065]
> 7.30	Cc1cccc2c(=O)[nH]c(-c3ccc(C(C)N4CCNCC4)cc3)cc12 (stereo not shown) [IQ-067]
> 6.30	Cc1cccc2c(=O)[nH]c(-c3ccc(CN4CCN(C(=O)OC(C)(C)C)CC4)nc3)cc12 [IQ-071]
> 6.30	Cc1cccc2c(=O)[nH]c(-c3ccc(CN4CCNCC4)nc3)cc12 [IQ-072]
> 7.30	Cc1cccc2c(=O)[nH]c(-c3ccc(CN4CCNCC4=O)cc3)cc12 [IQ-073]
> 6.30	Cc1cccc2c(=O)[nH]c(-c3ccc(C(C)(C)N4CCNCC4)cc3)cc12 [IQ-075, 5-Methyl-3-[(4-(1-methyl-1-piperazin-1-yl]-ethyl)-phenyl]-2H-isoquinolin-1-one]
> 6.30	Cc1cc(F)cc2c(=O)[nH]c(-c3ccc(CN4CCN(C(=O)OC(C)(C)C)CC4)cc3)cc12 [IQ-076]
> 6.30	CC(C)(C)OC(=O)N1CCN(Cc2ccc(-c3cc4c(F)ccc(F)c4c(=O)[nH]3)cc2)CC1 [IQ-077]
> 7.30	Cc1cc(F)cc2c(=O)[nH]c(-c3ccc(CN4CCNCC4)cc3)cc12 [IQ-078, 7-Fluoro-5-methyl-3-(4-piperazin-1-ylmethyl-phenyl)-2H-isoquinolin-1-one]
> 6.30	O=c1[nH]c(-c2ccc(CN3CCNCC3)cc2)cc2c(F)ccc(F)c12 [IQ-079]
> 7.30	O=c1[nH]c(-c2ccc(CN3CCNCC3)cc2)cc2c(Cl)cccc12 [IQ-083]
> 7.30	Cc1cccc2c(=O)[nH]c(-c3ccc(CN4CCNC(C)C4)cc3)cc12 (stereo not shown) [IQ-084-3]
> 7.30	Cc1cccc2c(=O)[nH]c(-c3ccc(CN4C[C@@H]5C[C@H]4CN5C(=O)OC(C)(C)C)cc3)cc12 [IQ-085]

pIC50	SMILES
> 7.30	Cc1cccc2c(=O)[nH]c(-c3ccc(CN4CCN5CCCC5C4)cc3)cc12 (stereo not shown) [IQ-087]
> 7.70	Cc1cccc2c(=O)[nH]c(-c3ccc(CN4CCC5(CCN(C)C5)C4)cc3)cc12 (stereo not shown) [IQ-088]
> 6.30	Cc1cccc2c(=O)[nH]c(-c3ccc(CN4C[C@@H]5CN(C(=O)OC(C)(C)C)C[C@@H]5C4)cc3)cc12 [IQ-089]
> 7.30	Cc1cccc2c(=O)[nH]c(-c3ccc(CN4C[C@H]5CNC[C@H]5C4)cc3)cc12 [IQ-090]
> 6.30	CN1CCC(CNC(=O)c2ccc(-c3cc4c(Cl)cccc4c(=O)[nH]3)cc2)CC1 [IQ-091, 4-(5-Chloro-1-oxo-1,2-dihydro-isoquinolin-3-yl)-N-(1-methyl-piperidin-4-ylmethyl)-benzamide]
> 6.30	Cc1cccc2c(=O)[nH]c(-c3ccc(C(=O)N(C)CC4CCN(C(=O)OC(C)(C)C)CC4)cc3)cc12 [IQ-092, 4-({Methyl-[4-(5-methyl-1-oxo-1,2-dihydro-isoquinolin-3-yl)-benzoyl]-amino}-methyl)-piperidine-1-carboxylic acid tert-butyl ester]
> 7.30	Cc1cccc2c(=O)[nH]c(-c3ccc(C(=O)N(C)CC4CCN(C)CC4)cc3)cc12 [IQ-095, N-Methyl-4-(5-methyl-1-oxo-1,2-dihydro-isoquinolin-3-yl)-N-(1-methyl-piperidin-4-ylmethyl)-benzamide]
> 7.30	Cc1cccc2c(=O)[nH]c(-c3ccc(C(=O)N(C)C4CCNCC4)cc3)cc12 [IQ-096, N-Methyl-4-(5-methyl-1-oxo-1,2-dihydro-isoquinolin-3-yl)-N-piperidin-4-yl-benzamide]
> 7.70	Cc1cccc2c(=O)[nH]c(-c3ccc(C(=O)N(C)CC4CCOCC4)cc3)cc12 [IQ-097, N-Methyl-4-(5-methyl-1-oxo-1,2-dihydro-isoquinolin-3-yl)-N-(tetrahydro-pyran-4-ylmethyl)-benzamide]
> 7.30	Cc1cccc2c(=O)[nH]c(-c3ccc(C(=O)N(C4CC4)C4CCN(C)CC4)cc3)cc12 [IQ-098]
> 7.70	Cc1cccc2c(=O)[nH]c(-c3ccc(C(=O)N(C)C4CCN(C)CC4)nc3)cc12 [IQ-099]
> 7.30	CN1CCN(C(=O)c2ccc(-c3cc4c(Cl)cccc4c(=O)[nH]3)cc2)CC1 [IQ-101]
> 7.70	Cc1cccc2c(=O)[nH]c(-c3ccc(C(=O)N4CCN(C)CC4)cc3)cc12 [IQ-104]
> 7.30	Cc1cccc2c(=O)[nH]c(-c3ccc(C(=O)N4CCN(C5CC5)CC4)cc3)cc12 [IQ-105]
> 7.70	Cc1cccc2c(=O)[nH]c(-c3ccc(C(=O)N4CCOCC4)cc3)cc12 [IQ-107]
> 7.30	Cc1cccc2c(=O)[nH]c(-c3ccc(S(=O)(=O)N(C)C)cc3)cc12 [IQ-108]
> 7.70	Cc1cccc2c(=O)[nH]c(-c3ccc(S(=O)(=O)N(C)C4CCN(C)CC4)cc3)cc12 [IQ-109]
> 6.30	CN1CCC(N(C)S(=O)(=O)c2ccc(-c3cc4c(Cl)cccc4c(=O)[nH]3)cc2)CC1 [IQ-110]
> 7.30	Cc1cccc2c(=O)[nH]c(-c3ccc(S(=O)(=O)N(C)CC4CCN(C)CC4)cc3)cc12 [IQ-111]
> 7.30	CN1CCC(CN(C)S(=O)(=O)c2ccc(-c3cc4c(Cl)cccc4c(=O)[nH]3)cc2)CC1 [IQ-112]
> 6.30	Cc1cccc2c(=O)[nH]c(-c3ccc(S(=O)(=O)N(C)CC4CCN(C(=O)OC(C)(C)C)CC4)cc3)cc12 [IQ-113]
